The values below come from patent publication US20200031793A1, “Synthesis of Thapsigargin, Nortrilobolide, and Analogs Thereof” (priority 2017, published 2020).

Series [1] concerns sarco/endoplasmic reticulum Ca^2+-ATPases (SERCAs). Particulars: cited from earlier work; for inhibition of sarco/endoplasmic reticulum Ca^2+-ATPases (SERCAs): qualitative statement, no own test.

What is called melting point is the temperature, or range, at which the solid turns liquid. Turning to `CC1=C2[C@@H]3OC(=O)[C@@](C)(O[Si](C)(C)C)[C@@]3(O)[C@H](OCc3ccccc3)C[C@](C)(O)[C@H]2C[C@H]1O[Si](C)(C)C(C)(C)C`, the melting point was in the range of 176.1 to 178.5 °C. Take `C/C=C(/C)C(=O)O[C@@H]1C[C@H]2C(=C1C)[C@@H]1OC(=O)[C@@](C)(O)[C@@]1(O)[C@@H](OC(=O)CCC)C[C@]2(C)OC(C)=O` [nortrilobolide]: in series [1], the “inhibition of sarco/endoplasmic reticulum Ca^2+-ATPases (SERCAs)” value is listed as “potent inhibitor”. For the same molecule, the “inhibition of Sarco/endoplasmic reticulum Ca^2+-ATPase compared with thapsigargin (1)” value in series [1] (relative to 1 (thapsigargin)) is recorded as “equipotent inhibition”. For the molecule thapsigargin, the “inhibition of sarco/endoplasmic reticulum Ca^2+-ATPases (SERCAs)” value in series [1] is “highly selective subnanomolar inhibitor”.
